Publication PMC6220272, “Scaffold-Hopping from Synthetic Drugs by Holistic Molecular Representation” (Scientific Reports, 2018)

How the values were obtained:
Assay type in all cases: cell-based
[1] = target: T1, RARβ (Homo sapiens, UniProt P10826); experiment: Gal4 hybrid reporter gene assay RARβ (selectivity profiling)
T1 construct: expressed in transfected cells; host or cells: HEK293T
T1 sequence (P10826 183-417 limits assumed): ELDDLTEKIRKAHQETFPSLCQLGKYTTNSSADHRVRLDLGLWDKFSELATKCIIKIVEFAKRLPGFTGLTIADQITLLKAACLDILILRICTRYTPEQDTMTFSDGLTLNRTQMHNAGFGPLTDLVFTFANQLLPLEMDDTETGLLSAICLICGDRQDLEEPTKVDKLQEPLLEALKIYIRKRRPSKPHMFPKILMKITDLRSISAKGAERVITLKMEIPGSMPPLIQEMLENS
Procedure: (§1) Moreover, 7 was characterized for its ability to modulate RXR target gene expression under more physiological conditions. Hepatoma cells (HepG2) were incubated with 7 (30 µM) or reference RXR agonist bexarotene (9, 1 µM) for eight hours and mRNA expression of RXR regulated genes ATP-binding cassette transporter A1 (ABCA1), angiopoietin like protein 4 (ANGPTL4) and apolipoprotein E (ApoE) was analysed by quantitative real-time PCR.
(§2) The Gal4 hybrid reporter gene assays were conducted as reported previously[39]–[41]. pFA-CMV-based constructs comprising the ligand binding domain of the human nuclear receptor in question were used as expression plasmids for the chimera receptors. pFR-Luc (Stratagene) served as reporter plasmid and pRL-SV40 (Promega) for normalization of transfection efficiency and cell growth. The assays were conducted in 96-well format in HEK293T cells that were cultured as described previously[39]–[41]. Transient transfection was carried out using Lipofectamine LTX reagent (Invitrogen) according to the manufacturer’s protocol. After transfection and incubation with test compounds (12–14 h), cells were assayed for luciferase activity using Dual-Glo™ Luciferase Assay System (Promega) according to the manufacturer’s protocol. Luminescence was measured with an Infinite M200 luminometer (Tecan Deutschland GmbH). […]

[2] = target: T2, constitutive androstane receptor [CAR] (Homo sapiens, UniProt Q14994); experiment: Gal4 hybrid reporter gene assay CAR (selectivity profiling)
T2 construct: expressed in transfected cells; host or cells: HEK293T
T2 sequence (Q14994 109-352 limits assumed): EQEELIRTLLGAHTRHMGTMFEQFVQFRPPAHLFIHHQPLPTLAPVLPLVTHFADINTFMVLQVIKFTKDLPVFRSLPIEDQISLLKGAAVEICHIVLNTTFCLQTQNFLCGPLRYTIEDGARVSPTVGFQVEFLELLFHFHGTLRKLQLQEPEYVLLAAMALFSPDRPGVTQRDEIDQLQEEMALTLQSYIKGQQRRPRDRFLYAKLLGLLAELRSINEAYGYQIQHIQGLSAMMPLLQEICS
Procedure: as §1, §2

[3] = target: T3, PPARδ (Homo sapiens, UniProt Q03181); experiment: Gal4 hybrid reporter gene assay PPARδ (selectivity profiling)
T3 construct: expressed in transfected cells; host or cells: HEK293T
T3 sequence (Q03181 211-439 limits assumed): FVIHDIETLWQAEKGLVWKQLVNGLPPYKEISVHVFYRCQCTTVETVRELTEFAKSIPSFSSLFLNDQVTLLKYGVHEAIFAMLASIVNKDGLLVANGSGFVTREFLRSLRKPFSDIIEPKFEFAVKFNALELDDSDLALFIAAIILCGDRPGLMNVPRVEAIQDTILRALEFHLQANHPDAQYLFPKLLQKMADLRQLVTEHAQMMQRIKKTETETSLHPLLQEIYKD
Procedure: as §1, §2

[4] = target: T4, human RXRβ ligand binding domain (Gal4 hybrid receptor) (Homo sapiens, UniProt P28702); experiment: Gal4 hybrid reporter gene assay RXRβ; conditions: HEK293T cells, n ≥ 4, read-out: RXRβ EC50 ± SEM
T4 construct: expressed in transfected cells; host or cells: HEK293T
T4 sequence (P28702 296-529 limits assumed): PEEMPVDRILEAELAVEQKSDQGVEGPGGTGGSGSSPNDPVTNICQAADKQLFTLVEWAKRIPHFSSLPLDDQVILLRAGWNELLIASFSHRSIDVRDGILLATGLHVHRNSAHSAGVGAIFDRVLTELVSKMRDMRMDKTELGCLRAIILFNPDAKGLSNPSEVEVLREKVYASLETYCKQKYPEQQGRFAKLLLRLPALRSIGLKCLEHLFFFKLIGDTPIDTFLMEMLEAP
Procedure: The 20 top-ranked synthetic compounds were selected and tested in vitro for their modulatory activity on RXR (Supplementary Table 1). Compounds were tested in specific hybrid reporter gene assays for RXRα, RXRβ and RXRγ modulation[39]–[41]. These assays rely on a constitutively expressed hybrid receptor composed of the respective human RXR ligand binding domain and the DNA binding domain of the Gal4 receptor from yeast. A Gal4 responsive firefly luciferase was used as reporter gene and constitutively expressed renilla luciferase served as internal control for transfection efficiency and test compound toxicity. All selected compounds were tested at 50 µM concentration on RXRα and for active compounds (Supplementary Fig. 1), dose response curves were recorded on all three RXR subtypes.
The Gal4 hybrid reporter gene assays were conducted as reported previously[39]–[41]. pFA-CMV-based constructs comprising the ligand binding domain of the human nuclear receptor in question were used as expression plasmids for the chimera receptors. pFR-Luc (Stratagene) served as reporter plasmid and pRL-SV40 (Promega) for normalization of transfection efficiency and cell growth. The assays were conducted in 96-well format in HEK293T cells that were cultured as described previously[39]–[41]. Transient transfection was carried out using Lipofectamine LTX reagent (Invitrogen) according to the manufacturer’s protocol. After transfection and incubation with test compounds (12–14 h), cells were assayed for luciferase activity using Dual-Glo™ Luciferase Assay System (Promega) according to the manufacturer’s protocol. Luminescence was measured with an Infinite M200 luminometer (Tecan Deutschland GmbH). All hybrid assays were validated with reference agonists (PPARα: GW7647; PPARγ: pioglitazone; PPARδ: L165,041; LXRα/β: T0901317; FXR: GW4064; RXRs: bexarotene; RARs: tretinoin; VDR: calcitriol; CAR: CITCO; PXR: SR12813) which yielded EC50 values in agreement with literature. The assays were conducted in duplicates with at least two independent repeats and for active compounds repeated without hybrid receptor coding DNA for every test compound at the highest tested concentration to exclude unspecific effects.
Supplementary Figure 2. Dose-response curves for RXRα activation. Compounds were tested in specific hybrid reporter gene assays for RXRα, RXRβ and RXRγ modulation.^1–3 These assays rely on a constitutively expressed hybrid receptor composed of the respective human RXR ligand binding domain and the DNA binding domain of the Gal4 receptor from yeast. A Gal4 responsive firefly luciferase was used as reporter gene and constitutively expressed renilla luciferase served as internal control for transfection efficiency and test compound toxicity. […]

[5] = target: T5, RARα (Homo sapiens, UniProt P10276); experiment: Gal4 hybrid reporter gene assay RARα (selectivity profiling)
T5 construct: expressed in transfected cells; host or cells: HEK293T
T5 sequence (P10276 183-417 limits assumed): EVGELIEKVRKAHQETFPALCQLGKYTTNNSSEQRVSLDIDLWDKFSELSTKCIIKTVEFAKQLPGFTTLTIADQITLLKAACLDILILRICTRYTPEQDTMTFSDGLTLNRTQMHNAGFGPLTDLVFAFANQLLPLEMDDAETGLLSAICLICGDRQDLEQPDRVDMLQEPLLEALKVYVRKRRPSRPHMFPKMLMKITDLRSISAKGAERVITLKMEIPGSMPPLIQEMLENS
Procedure: as §1, §2

[6] = system: HepG2 cells; experiment: Toxicity assay (WST-1, water-soluble tetrazolium assay); conditions: WST-1, HepG2 cells, 48 h
Procedure: WST-1 assay (Roche Diagnostics International AG, Rotkreuz, Schweiz) was performed according to manufacturer’s protocol in HepG2 cells. Cells were incubated with the test compounds (final concentrations: 1 µM, 10 µM, 30 µM, 50 µM and 100 µM) in DMEM/1% DMSO, and DMEM/1% DMSO as negative control. After 48 h, WST reagent (Roche Diagnostics International AG) was added to each well according to manufacturer’s instructions. After 45 min incubation, absorption (450 nm/reference: 620 nm) was determined with a Tecan Infinite M200 (Tecan Deutschland GmbH). Each experiment was set up in duplicates and repeated in four independent experiments. Results are expressed as mean ± SEM% of DMSO (0.1%) control.

- activity on RARβ [1]: no activity
- activity on CAR [2]: no activity
- activity on PPARδ [3]: no activity
- EC50 [4]: 25.1 ± 0.1 µM
- activity on RARα [5]: no activity
Structure (SMILES): CC(C)(C)c1cc(/C=N/NC(=O)c2ccc(N)cc2)cc(C(C)(C)C)c1 [Compound 7]
- concentration up to which no cytotoxic effect was seen [6]: > 100 µM
